Data as given in ChEMBL document CHEMBL5528028, “Discovery of benzopyridone cyanoacetates as new type of potential broad-spectrum antibacterial candidates” (Eur J Med Chem, 2024).
Values after ≈ are worked out from the molar mass of the structure shown. Active and inactive are the calls of the source. No cut-off for these calls is given here.

How the values were obtained:
Staphylococcus aureus [1] = assay: Bactericidal activity against Staphylococcus aureus ATCC 29213 assessed as time dependent killing at 4 times of MIC measured at 8 hrs; assay type: functional, organism-based
Klebsiella pneumoniae [2] = assay: Bactericidal activity against Klebsiella pneumonia assessed as time dependent killing at 4 times of MIC measured at 8 hrs; assay type: functional, organism-based
Staphylococcus aureus [3] = assay: Induction of resistance development in Staphylococcus aureus ATCC 29213 assessed as after 20 passages measured upto 4.5 times of MIC; assay type: functional
Klebsiella pneumoniae [4] = assay: Induction of resistance development in Klebsiella pneumonia assessed as after 20 passages measured upto 4.5 times of MIC; assay type: functional
Staphylococcus aureus [5] = assay: Anti-biofilm activity against Staphylococcus aureus ATCC 29213 assessed as relative biofilm clearance rate by crystal violet staining based assay; assay type: functional, organism-based
Klebsiella pneumoniae [6] = assay: Anti-biofilm activity against Klebsiella pneumonia assessed as relative biofilm clearance rate by crystal violet staining based assay; assay type: functional, organism-based
Cell membrane [7] = assay: Induction of outer membrane permeability in Klebsiella pneumonia assessed as increase in fluorescence intensity at 2 times of MIC by N-phenyl naphthylamine (NPN) dye based assay; assay type: cell membranes; conditions: Klebsiella pneumoniae
Cell membrane [8] = assay: Induction of inner membrane permeability in Staphylococcus aureus ATCC 29213 assessed as increase in fluorescence intensity by propidium iodide uptake based microscopic imaging assay; assay type: cell membranes
Cell membrane [9] = assay: Induction of inner membrane permeability in Klebsiella pneumonia assessed as increase in fluorescence intensity by propidium iodide uptake based microscopic imaging assay; assay type: cell membranes; conditions: Klebsiella pneumoniae
Cell membrane [10] = assay: Induction of cytoplasmic membrane depolarization in Staphylococcus aureus ATCC 29213 assessed as increase in fluorescence intensity at 2 times of MIC measured upto 40 mins by DiSC35 dye based fluorescence method; assay type: cell membranes
Cell membrane [11] = assay: Induction of cytoplasmic membrane depolarization in Klebsiella pneumonia assessed as increase in fluorescence intensity at 2 times of MIC measured upto 40 mins by DiSC35 dye based fluorescence method; assay type: cell membranes; conditions: Klebsiella pneumoniae
Cell membrane [12] = assay: Induction of disruption of membrane integrity in Staphylococcus aureus ATCC 29213 assessed as leakage of intracellular proteins by Acid Blue 90 based assay; assay type: cell membranes
Cell membrane [13] = assay: Induction of disruption of membrane integrity in Klebsiella pneumonia assessed as leakage of intracellular proteins by Acid Blue 90 based assay; assay type: cell membranes; conditions: Klebsiella pneumoniae
Staphylococcus aureus [14] = assay: Antibacterial activity against Staphylococcus aureus ATCC 29213 assessed as morphological changes by measuring shrunken and cracked cells at 4 times of MIC by SEM microscopic analysis; assay type: functional, organism-based
Klebsiella pneumoniae [15] = assay: Antibacterial activity against Klebsiella pneumonia assessed as morphological changes by measuring shrunken and cracked cells at 4 times of MIC by SEM microscopic analysis; assay type: functional, organism-based
Calf thymus DNA [16] = assay: Binding affinity to calf thymus DNA assessed as change in absorption by UV-Vis absorption spectra analysis; assay type: nucleic-acid assay; conditions: Bos taurus
Calf thymus DNA [17] = assay: Induction of calf thymus DNA double helix loss assessed as reduction in fluorescence intensity at 525 nm wavelength by acridine orange competition based assay; assay type: nucleic-acid assay; conditions: Bos taurus
Staphylococcus aureus [18] = assay: Induction of ROS generation in Staphylococcus aureus ATCC 29213 assessed as increase in fluorescence intensity by DCFH-DA based microscopic analysis; assay type: functional, organism-based
Klebsiella pneumoniae [19] = assay: Induction of ROS generation in Klebsiella pneumonia assessed as increase in fluorescence intensity by DCFH-DA based microscopic analysis; assay type: functional, organism-based
Staphylococcus aureus [20] = assay: Induction of ROS generation in Staphylococcus aureus ATCC 29213 assessed as loss of GSH activity by Ellmans method; assay type: functional, organism-based
Klebsiella pneumoniae [21] = assay: Induction of ROS generation in Klebsiella pneumonia assessed as loss of GSH activity by Ellmans method; assay type: functional, organism-based
Staphylococcus aureus [22] = assay: Antibacterial activity against Staphylococcus aureus ATCC 29213 assessed as decrease in relative metabolic activity at 4 times of MIC by Alamar Blue assays; assay type: functional, organism-based
Klebsiella pneumoniae [23] = assay: Antibacterial activity against Klebsiella pneumonia assessed as decrease in relative metabolic activity at 4 times of MIC by Alamar Blue assays; assay type: functional, organism-based
Staphylococcus aureus [24] = assay: Antibacterial activity against methicillin-resistant Staphylococcus aureus assessed growth inhibition by micro broth dilution method; assay type: functional
Staphylococcus aureus [25] = assay: Antibacterial activity against Staphylococcus aureus assessed growth inhibition by micro broth dilution method; assay type: functional
Staphylococcus aureus [26] = assay: Antibacterial activity against Staphylococcus aureus ATCC 25923 assessed growth inhibition by micro broth dilution method; assay type: functional
Staphylococcus aureus [27] = assay: Antibacterial activity against Staphylococcus aureus ATCC 29213 assessed growth inhibition by micro broth dilution method; assay type: functional
Enterococcus faecalis = assay: Antibacterial activity against Enterococcus faecalis assessed growth inhibition by micro broth dilution method; assay type: functional
Klebsiella pneumoniae [28] = assay: Antibacterial activity against Klebsiella pneumonia assessed growth inhibition by micro broth dilution method; assay type: functional
Escherichia coli [29] = assay: Antibacterial activity against Escherichia coli assessed growth inhibition by micro broth dilution method; assay type: functional
Escherichia coli [30] = assay: Antibacterial activity against Escherichia coli ATCC 25922 assessed growth inhibition by micro broth dilution method; assay type: functional
Pseudomonas aeruginosa [31] = assay: Antibacterial activity against Pseudomonas aeruginosa assessed growth inhibition by micro broth dilution method; assay type: functional
Pseudomonas aeruginosa [32] = assay: Antibacterial activity against Pseudomonas aeruginosa ATCC 27853 assessed growth inhibition by micro broth dilution method; assay type: functional
Acinetobacter baumannii = assay: Antibacterial activity against Acinetobacter baumannii assessed growth inhibition by micro broth dilution method; assay type: functional

Compound: CCCCCCCCn1cc(C(=O)OCC)c(=O)c2cc(F)c(C(C#N)C(=O)OCC)cc21 (configuration not stated)
- Activity (Staphylococcus aureus [1]): Active
- Activity (Klebsiella pneumoniae [2]): Active
- Activity (Staphylococcus aureus [3]): Active
- Activity (Klebsiella pneumoniae [4]): Active
- Activity (Staphylococcus aureus [5]): Dose-Dependent Effect
- Activity (Klebsiella pneumoniae [6]): Dose-Dependent Effect
- Activity (Cell membrane [7]): Dose-Dependent Effect
- Activity (Cell membrane [8]): Dose-Dependent Effect
- Activity (Cell membrane [9]): Dose-Dependent Effect
- Activity (Cell membrane [10]): Active
- Activity (Cell membrane [11]): Active
- Activity (Cell membrane [11]; DISRUPTING AGENT): Active
- Activity (Cell membrane [12]): Dose-Dependent Effect
- Activity (Cell membrane [13]): Dose-Dependent Effect
- Activity (Staphylococcus aureus [14]): Active
- Activity (Klebsiella pneumoniae [15]): Active
- Activity (Calf thymus DNA [16]): Active
- Activity (Calf thymus DNA [17]): Active
- Activity (Staphylococcus aureus [18]): Dose-Dependent Effect
- Activity (Klebsiella pneumoniae [19]): Dose-Dependent Effect
- Activity (Staphylococcus aureus [20]): Dose-Dependent Effect
- Activity (Klebsiella pneumoniae [21]): Dose-Dependent Effect
- Activity (Staphylococcus aureus [22]): Active
- Activity (Klebsiella pneumoniae [23]): Active

Compound: CCCCCCn1cc(C(=O)OCC)c(=O)c2cc(F)c([C-](C#N)C(=O)OCC)cc21.[Na+] (configuration not stated)
- MIC (Staphylococcus aureus [24]): 32 µg/mL
- MIC (Staphylococcus aureus [25]): 16 µg/mL
- MIC (Staphylococcus aureus [26]): 0.5 µg/mL
- MIC (Staphylococcus aureus [27]): 1 µg/mL
- MIC (Enterococcus faecalis): 16 µg/mL
- MIC (Klebsiella pneumoniae [28]): 1 µg/mL
- MIC (Escherichia coli [29]): 0.5 µg/mL
- MIC (Escherichia coli [30]): 1 µg/mL
- MIC (Pseudomonas aeruginosa [31]): 0.5 µg/mL
- MIC (Pseudomonas aeruginosa [32]): 1 µg/mL
- MIC (Acinetobacter baumannii): 0.5 µg/mL

Compound: CCOC(=O)c1cn(Cc2cnc(Cl)s2)c2cc(F)c(F)cc2c1=O
- MIC (Staphylococcus aureus [24]): 32 µg/mL (≈ 83.2 µM)
- MIC (Staphylococcus aureus [25]): 256 µg/mL (≈ 665 µM)
- MIC (Staphylococcus aureus [26]): 4 µg/mL (≈ 10.4 µM)
- MIC (Staphylococcus aureus [27]): 32 µg/mL (≈ 83.2 µM)
- MIC (Enterococcus faecalis): 32 µg/mL (≈ 83.2 µM)
- MIC (Klebsiella pneumoniae [28]): 64 µg/mL (≈ 166 µM)
- MIC (Escherichia coli [29]): 8 µg/mL (≈ 20.8 µM)
- MIC (Escherichia coli [30]): 32 µg/mL (≈ 83.2 µM)
- MIC (Pseudomonas aeruginosa [31]): 64 µg/mL (≈ 166 µM)
- MIC (Pseudomonas aeruginosa [32]): 16 µg/mL (≈ 41.6 µM)
- MIC (Acinetobacter baumannii): 32 µg/mL (≈ 83.2 µM)

Compound: C#CCn1cc(C(=O)OCC)c(=O)c2cc(F)c([C-](C#N)C(=O)OCC)cc21.[Na+] (configuration not stated)
- MIC (Staphylococcus aureus [24]): 64 µg/mL
- MIC (Staphylococcus aureus [25]): 64 µg/mL
- MIC (Staphylococcus aureus [26]): 2 µg/mL
- MIC (Staphylococcus aureus [27]): 16 µg/mL
- MIC (Enterococcus faecalis): 32 µg/mL
- MIC (Klebsiella pneumoniae [28]): 16 µg/mL
- MIC (Escherichia coli [29]): 16 µg/mL
- MIC (Escherichia coli [30]): 8 µg/mL
- MIC (Pseudomonas aeruginosa [31]): 32 µg/mL
- MIC (Pseudomonas aeruginosa [32]): 8 µg/mL
- MIC (Acinetobacter baumannii): 16 µg/mL
